Results: patent US20160228575A1, “NARINGENIN COMPLEXES AND METHODS OF USE THEREOF” (THE GENERAL HOSPITAL CORPORATION, priority 2008, published 2016)
“Also recorded” adds a separate entry of the source. Like-named read-outs stand apart in the source and are kept apart here.

What was measured:
[1] = test system: HCV (JFH-1) in Huh-7.5.1 cells; assay: Intracellular HCV RNA and core protein in infected Huh-7.5.1 cells; assay type: cell-based, Hepatitis C virus
Description: HCV-infected Huh-7.5.1 cells were plated on a 6-well plate at a density of 1×10^5 cells/cm^2 and cultured overnight in standard medium. Prior to the beginning of the experiment, the cells were washed 3 times with PBS and cultured with DMEM containing 5% lipoprotein-free FBS. Oleate, Insulin, Naringenin, and Brefeldin A were added at this time as described in the text. Following 24 hours of incubation, the plate was gently agitated to release mechanically bound particles, the media was collected, filtered to remove cellular debris, and stored at −80° C. for further analysis. The attached cells were washed 3 times with PBS, harvested, pelleted and stored at −80° C. for further analysis.
(§1) Virus samples collected in each experiment were filtered with a 0.45 μm filter and a volume of 100 μL for each sample was heated at 95° C. for 45 min. The reverse transcription reaction step was performed on a Mastercycler epgrdientS (Eppendorf) instrument using Omniscript and Sensiscript RT Kits (Qiagen). Real time PCR was performed on a Light Cycler LC-24 (Idaho Technology), using SuperScript™ III Platinum® CellsDirect Two-Step qRT-PCR Kits (Invitrogen) for quantitative PCR. For reverse transcription step, 2 μL of sample without RNA extraction were used. For real time PCR, 1 μL of the reverse transcription reactions was used. All reactions were performed according to the manufacturer's instructions using the primers detailed in Table 1.
Huh-7.5.1 cells were washed 3 times with PBS and fixed in 4% EM-grade paraformaldehyde for 10 minutes at room temperature. Slides were then washed with PBS and incubated in 100 mmol/L glycine for 15 minutes to saturate reactive groups. Samples were permeabilized for 15 minutes with 0.1% Triton X-100, blocked for 30 minutes with 1% bovine serum albumin and 5% donkey serum at room temperature, and stained with primary antibodies overnight at 4° C. After additional washes with PBS, samples were stained with fluorescently tagged secondary antibodies for 45 minutes at room temperature.

S-180 sarcoma cell line = conditions: intraperitoneal or peroral injection once a day for 5 days, mice, cited from earlier work
[2] = Intraperitoneal injection of naringenin to SCID mice: survival, liver enzymes, triglycerides; assay type: in vivo
Description: Male SCID mice (8 weeks old, 20-25 g) were obtained from Charles River Laboratories (Wilmington, Mass.). Animals were treated in accordance with NIH guidelines, and MGH Subcommittee on Research Animal Care. The mice were allowed free access to laboratory chow and water ad labium. Naringenin was dissolved in 0.5% Tween 20 diluted in saline and given by intraperitoneal injection. Two days following the treatment, animals were sacrificed and blood was withdrawn by cardiac puncture. AST and ALT enzyme levels were assessed as described above. Total triglycerides were measured using a kit purchased from Sigma-Aldrich Chemicals (St. Louis, Mo.) according to the manufacturer's instructions.
To assess naringenin ability to reduce circulating vLDL levels we measured total triglycerides levels in animal plasma.

actin = assay: Actin mRNA level by qPCR in infected Huh7.5.1 cells; assay type: cell-based, human; conditions: naringenin 24 hours
Description: as §1

LXRα = LXRα transcription in infected Huh7.5.1 cells; assay type: cell-based, human; conditions: short term 24 hours stimulation of Huh7.5.1 cells
Description: as §1
PPARα and LXRα are ligand-activated transcription factors which control much of the fasted-to-fed transition and were previously shown to be important in the development of inflammation and insulin resistance. […] Following a short term 24 hours stimulation of Huh7.5.1 cells PPARα transcription increased by 86%, while LXRα was decreased by 25%. PPARα is the target of fibrates and plays a major role in the downregulation of inflammation, increasing sensitivity to insulin, and modulating dyslipidemia.

[3] = biological target: T1, Microsomal triglyceride transfer protein (MTP) (Homo sapiens, UniProt P55157); assay: Microsomal triglyceride transfer protein (MTP) activity assay in Huh7.5.1 cell homogenates; assay type: cell-based; conditions: Huh-7.5.1, 24 hours stimulation of Huh7.5.1 cells
T1 construct: The MTP assay was performed by incubating 50 μg cellular protein with 10 μl of donor and acceptor solutions; endogenous in cells; host or cells: Huh7.5.1 human hepatoma cells (sonicated homogenate, 50 µg cellular protein)
T1 sequence (P55157 19-894): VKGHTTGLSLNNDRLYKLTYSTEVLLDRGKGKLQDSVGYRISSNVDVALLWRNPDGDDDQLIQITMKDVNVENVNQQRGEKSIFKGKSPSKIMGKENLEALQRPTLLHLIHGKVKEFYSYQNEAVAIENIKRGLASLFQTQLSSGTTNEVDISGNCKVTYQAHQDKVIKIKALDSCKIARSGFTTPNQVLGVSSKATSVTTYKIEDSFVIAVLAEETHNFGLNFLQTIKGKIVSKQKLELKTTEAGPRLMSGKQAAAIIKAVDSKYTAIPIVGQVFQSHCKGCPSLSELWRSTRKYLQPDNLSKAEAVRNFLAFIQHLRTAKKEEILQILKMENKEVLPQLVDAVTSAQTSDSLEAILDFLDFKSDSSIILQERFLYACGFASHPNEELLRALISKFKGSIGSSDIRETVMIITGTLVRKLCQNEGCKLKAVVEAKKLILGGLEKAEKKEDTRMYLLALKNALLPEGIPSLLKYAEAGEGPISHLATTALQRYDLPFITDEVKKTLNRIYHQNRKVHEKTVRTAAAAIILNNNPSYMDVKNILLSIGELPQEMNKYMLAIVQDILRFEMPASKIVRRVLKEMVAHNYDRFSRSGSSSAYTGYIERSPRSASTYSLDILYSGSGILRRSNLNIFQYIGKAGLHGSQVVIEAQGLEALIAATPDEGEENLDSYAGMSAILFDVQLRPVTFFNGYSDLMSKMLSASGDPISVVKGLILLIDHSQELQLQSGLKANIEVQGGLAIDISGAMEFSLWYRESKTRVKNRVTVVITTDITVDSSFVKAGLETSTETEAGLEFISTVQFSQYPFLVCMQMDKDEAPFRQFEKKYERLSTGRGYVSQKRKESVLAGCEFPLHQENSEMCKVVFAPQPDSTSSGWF
T1 sequence (P07237 18-508 partner): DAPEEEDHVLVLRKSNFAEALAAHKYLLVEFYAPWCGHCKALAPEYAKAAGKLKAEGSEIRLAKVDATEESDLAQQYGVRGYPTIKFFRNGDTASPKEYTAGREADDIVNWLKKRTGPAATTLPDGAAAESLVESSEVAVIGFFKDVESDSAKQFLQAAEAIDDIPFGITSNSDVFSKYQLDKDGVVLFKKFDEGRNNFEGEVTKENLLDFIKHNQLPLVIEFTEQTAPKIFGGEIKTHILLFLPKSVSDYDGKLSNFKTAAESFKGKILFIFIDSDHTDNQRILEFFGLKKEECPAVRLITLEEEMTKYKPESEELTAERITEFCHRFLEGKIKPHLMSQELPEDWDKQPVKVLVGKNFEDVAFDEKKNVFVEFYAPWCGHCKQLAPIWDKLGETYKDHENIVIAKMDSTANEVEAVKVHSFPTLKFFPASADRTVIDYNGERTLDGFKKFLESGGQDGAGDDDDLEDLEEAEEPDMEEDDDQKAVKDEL
Description: MTP activity was analyzed using an MTP assay kit as previously described (11). The assay is based on a transfer of a fluorescent signal between donor and acceptor particles due to MTP activity. Briefly, confluent Huh7.5.1 cells stimulated with naringenin or carrier control for 24 hours then washed with ice cold PBS and scraped off the dish using a cell scraper. Samples were homogenized by sonication (3×5 sec) in buffer containing protease inhibitors. The MTP assay was performed by incubating 50 μg cellular protein with 10 μl of donor and acceptor solutions in 250 μl total buffer (15 mM Tris pH 7.4; 40 mM NaCl; 1 mM EDTA). Increase in fluoresecent signal was measured over 12 hours at 37° C. at the excitation wavelength of 465 nm and emission wavelength of 538 nm.

ACAT1 = ACAT1 mRNA level by qPCR in infected Huh7.5.1 cells; assay type: cell-based, human; conditions: naringenin 24 hours
ACAT2 = ACAT2 transcription by qPCR in infected Huh7.5.1 cells; assay type: cell-based, human; conditions: naringenin 24 hours, infected Huh-7.5.1 cells
[4] = oral; cited from earlier work

In the case of O=C1C[C@@H](c2ccc(O)cc2)Oc2cc(O)cc(O)c21 [naringenin], the “intracellular HCV core protein expression” value ([1]; 24 hours stimulation) is reported as “remained unchanged”, the “intracellular levels of HCV (positive strand) RNA” value ([1]; 24 hours stimulation) is reported as “remains unchanged” and the “HCV replication (intracellular HCV RNA), long-term treatment” value ([1]; long-term treatment, naringenin 200 μM, IFNα 1000 i.u.) is reported as “didn't appear to effect; also recorded: remained unchanged”. The “tumor growth of S-180 sarcoma” value (S-180 sarcoma cell line) was “significantly inhibit”, the “tumor growth of S-180 sarcoma” value (S-180 sarcoma cell line; listed as Naringenin) was “significantly inhibits” and the “ALT levels in plasma” value ([2]; 48 hrs following i.p. injection, all doses) was “no elevation”. The “AST levels in plasma” value ([2]; 48 hrs following i.p. injection, even at the highest dose (1500 mg/kg)) was “under 100 U/l”, the “total triglycerides in animal plasma” value ([2]; following i.p. naringenin injection) was “decrease” and the animal survival ([2]; intraperitoneal injection, 60, 300, 1500 mg/kg, male SCID mice) was “not affected; also recorded: did not cause death”. For the same molecule, the “actin mRNA level” value (actin) was “remained unchanged”, the “decrease of LXRα transcription” value (LXRα) was 25% and the inhibition at 200 µM [3] was 58%. The “ACAT1 mRNA level” value (ACAT1) was “remained unchanged”, the “reduction of ACAT2 transcription” value (ACAT2) was 55%±7% and the “absorbance through the intestinal wall (intestinal absorption)” value [4] was “about 6%”.
